In PMC4848510, “Foldamer-mediated manipulation of a pre-amyloid toxin” (Nature Communications, 2016):

Tests used:
IAPP = biological target: T1, IAPP (Homo sapiens, UniProt P10997); assay: LUV-catalysed IAPP fibre formation kinetic assay (ThT fluorescence); type: biochemical; conditions: 10 μM IAPP, 1:1 IAPP:small molecule, 630 μM LUVs DOPG:DOPC 1:1; ND = no kinetics over time of observation
T1 construct: IAPP is a 37-residue peptide co-packaged with insulin in pancreatic β-cells; purchased Genscript; Elim Biopharmaceuticals
T1 sequence (P10997 34-70 limits assumed): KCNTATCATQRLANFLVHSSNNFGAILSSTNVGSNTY
Protocol: Unless otherwise stated, LUVs used in this work were prepared from a 1:1 mixture of DOPG/DOPC. The lyophilized mixture was hydrated in 100 mM KCl, 50 mM sodium phosphate and pH 7.4 for 20 min. A 20mg ml^−1 solution of lipid in buffer was passed 21 times through a polycarbonate membrane (pore diameter=100 nm). The phospholipid content of the final material was measured using a total phosphorous assay.
(§1) Amyloid reactions were conducted in buffer containing liposome (630 μM lipid) and 20 μM ThT in a black 96-well plate. This was followed by the addition of small molecule dissolved in dimethylsulphoxide (DMSO; final DMSO concentration=0.5%, v/v). Fibre formation was initiated by the addition of IAPP stock solution. The final volume in each well was 200 μl. Kinetics of fibrillation was monitored by ThT fluorescence (excitation 450 nm and emission 485 nm), using a FluoDia T70 fluorescence plate reader (Photon Technology International, Edison, NJ, USA). The data were blank subtracted and renormalized to the maximum intensity of reactions containing only IAPP. Each kinetic trace was fit to a sigmoidal form:
(§2) where I is the fluorescence intensity, t is time, and b, m and τ are dependent fitting variables. All samples were run at least in triplicate and error bars shown in the text represent ±1 s.d.

INS-1 cells = assay: Rescue of INS-1 cells from IAPP-induced toxicity (CellTiter Blue); conditions: 13 μM IAPP; for rescue of IAPP-induced toxicity, co-addition: small molecule co-added 1:1, 48 h, n=24
Protocol: Cells were passaged on reaching ∼95% confluence (0.25% Trypsin-EDTA, Life Technologies), propagated and/or used in experiments. Cells used in experiments were pelleted and resuspended in fresh media with no Trypsin-EDTA.
Cell viability was measured colourimetrically using the CellTiter Blue (CTB, Promega, Madison, WI, USA) fluorescence-based assay. Cells were plated at a density 5,000 cells per well in 96-well plates (BD Biosciences, San Diego, CA). Peptide was directly introduced to each well after 48 h of culture and then further incubated for an additional 48 h. For time-dependent experiments, cells were incubated with peptide for the specified time points. After the incubation period, 20-μl CellTiter Blue reagent was added to each well and incubated at 37 °C and 5% CO2 for 2.5–3.5 h. Fluorescence of the resorufin product was measured on a FluoDia T70 fluorescence plate reader (Photon Technology International, Birmingham, NJ, USA). All wells included the same amount of water to account for different concentrations of peptide added to sample wells. Wells that included water vehicle but not peptide served as the negative control (0% toxic), and wells containing 10% DMSO were the positive control (100% toxic). Per cent toxicity was calculated using the following equation:
Each independent variable is the average of eight plate replicates from the negative control (<N>), positive control (<P>) and samples (<S>). Results presented for viability experiments are an average of three such experiments conducted independently on different days. Error bars represent the s.e.m.

[1] = tested on: Src and its homologue, Abl; conditions: cited from earlier work
Text: Dynamic binding modes, such as conformational selection, are often observed in protein:ligand interactions. A recent example is the anti-cancer drug Gleevec[8]. Gleevec binds to structurally identical sites in Src and its homologue, Abl. […] It stands to reason that the internal degrees of freedom of ligands should be similarly exploitable. However, ligand dynamics are viewed unfavourably as a result of entropy loss on binding. The non-covalent and reversible stabili ...

[2] = IAPP fibre formation in solution without LUVs (ThT); type: physicochemical, human; conditions: 10 μM IAPP, no LUVs, at least triplicate, ±1 s.d.
Protocol: as §1, with “form: […]” for “form:”
as §2
Supplementary Figure 1: Kinetic profiles of IAPP self-assembly. a, Three representative kinetic profiles for a standard reaction of 10 µM IAPP catalysed by the presence of 630 µM LUVs (DOPG:DOPC, 1:1, 100 nm) (inset) A representative sigmoid fit (magenta) used to extract reaction midpoints, t50. b, Representative comparison of the kinetic profiles of (10 µM) IAPP fibrillation in the absence (black) and presence (red) of 630 µM LUVs. […]

Row | Molecule | t50 / (t50 IAPP only), inhibition of LUV-catalysed fibre formation (IAPP) | rescue of IAPP-induced toxicity, co-addition (INS-1 cells) | difference in binding affinity between Src and Abl [1] | reaction midpoint t50 of IAPP assembly into fibres in solution [2] | decrease of INS-1 viability (INS-1 cells; 48 h incubation)
1 | O=C(O[C@@H]1Cc2c(O)cc(O)cc2O[C@@H]1c1cc(O)c(O)c(O)c1)c1cc(O)c(O)c(O)c1 [EGCG, epigallocatechin gallate] | no detectable effect | ineffective in rescuing toxicity | – | – | –
2 | Cc1ccc(NC(=O)c2ccc(CN3CCN(C)CC3)cc2)cc1Nc1nccc(-c2cccnc2)n1 [Gleevec] | – | – | > 1,000 fold | – | –
3 | CC[C@H](C)[C@H](NC(=O)[C@H](C)NC(=O)CNC(=O)[C@H](Cc1ccccc1)NC(=O)[C@H](CC(N)=O)NC(=O)[C@H](CC(N)=O)NC(=O)[C@H](CO)NC(=O)[C@H](CO)NC(=O)[C@H](Cc1c[nH]cn1)NC(=O)[C@@H](NC(=O)[C@H](CC(C)C)NC(=O)[C@H](Cc1ccccc1)NC(=O)[C@H](CC(N)=O)NC(=O)[C@H](C)NC(=O)[C@H](CC(C)C)NC(=O)[C@H](CCCNC(=N)N)NC(=O)[C@H](CCC(N)=O)NC(=O)[C@@H](NC(=O)[C@H](C)NC(=O)[C@@H]1CSSC[C@H](NC(=O)[C@@H](N)CCCCN)C(=O)N[C@@H](CC(N)=O)C(=O)N[C@@H]([C@@H](C)O)C(=O)N[C@@H](C)C(=O)N[C@@H]([C@@H](C)O)C(=O)N1)[C@@H](C)O)C(C)C)C(=O)N[C@@H](CC(C)C)C(=O)N[C@@H](CO)C(=O)N[C@@H](CO)C(=O)N[C@H](C(=O)N[C@@H](CC(N)=O)C(=O)N[C@H](C(=O)NCC(=O)N[C@@H](CO)C(=O)N[C@@H](CC(N)=O)C(=O)N[C@H](C(=O)N[C@@H](Cc1ccc(O)cc1)C(N)=O)[C@@H](C)O)C(C)C)[C@@H](C)O [IAPP] | – | – | – | 18 ± 1.4 h | 78±8%
4 | Oc1ccc(/C=C/c2cc(O)cc(O)c2)cc1 [resveratrol] | no detectable effect | ineffective in rescuing toxicity | – | – | –
5 | acid fuchsin | no detectable effect | ineffective in rescuing toxicity | – | – | –
